Test results as given in patent publication US20090311217A1, “3-SUBSTITUTED-1H-INDOLE COMPOUNDS, THEIR USE AS MTOR KINASE AND PI3 KINASE INHIBITORS, AND THEIR SYNTHESES” (priority 2008, published 2009).

Tests used:
Type in all cases: biochemical
PI3K-alpha = PI3K-alpha (Homo sapiens, UniProt P42336); experiment: PI3K-alpha fluorescence polarization assay; settings: read-out: PI3Kα Avg. IC50
PI3K-gamma = PI3K-gamma (Homo sapiens, UniProt P48736); experiment: PI3K-gamma fluorescence polarization assay; settings: PI3Kγ Avg. IC50
Method in brief: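 Reactions in 5 mM HEPES pH 7, 2.5 mM MgCl2, 25 μM ATP with 2.5 μM diC8-PI(4,5)P2 and 5 ng enzyme, 1 h at 25° C, then EDTA quench. Product detected by FP using GST-GRP1 PH domain (100 nM) and BODIPY-TMR-IP4 tracer (5 nM); final DMSO 0.8%.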

human TOR = target: T1, human TOR (Homo sapiens, UniProt P42345); experiment: mTOR enzyme assay (DELFIA, His6-S6K substrate); settings: read-out: mTOR Kinase Avg. IC50
T1 construct: FLAG

PI3K-gamma, sequence (P48736 whole entry, species assumed, the tested form may be a part): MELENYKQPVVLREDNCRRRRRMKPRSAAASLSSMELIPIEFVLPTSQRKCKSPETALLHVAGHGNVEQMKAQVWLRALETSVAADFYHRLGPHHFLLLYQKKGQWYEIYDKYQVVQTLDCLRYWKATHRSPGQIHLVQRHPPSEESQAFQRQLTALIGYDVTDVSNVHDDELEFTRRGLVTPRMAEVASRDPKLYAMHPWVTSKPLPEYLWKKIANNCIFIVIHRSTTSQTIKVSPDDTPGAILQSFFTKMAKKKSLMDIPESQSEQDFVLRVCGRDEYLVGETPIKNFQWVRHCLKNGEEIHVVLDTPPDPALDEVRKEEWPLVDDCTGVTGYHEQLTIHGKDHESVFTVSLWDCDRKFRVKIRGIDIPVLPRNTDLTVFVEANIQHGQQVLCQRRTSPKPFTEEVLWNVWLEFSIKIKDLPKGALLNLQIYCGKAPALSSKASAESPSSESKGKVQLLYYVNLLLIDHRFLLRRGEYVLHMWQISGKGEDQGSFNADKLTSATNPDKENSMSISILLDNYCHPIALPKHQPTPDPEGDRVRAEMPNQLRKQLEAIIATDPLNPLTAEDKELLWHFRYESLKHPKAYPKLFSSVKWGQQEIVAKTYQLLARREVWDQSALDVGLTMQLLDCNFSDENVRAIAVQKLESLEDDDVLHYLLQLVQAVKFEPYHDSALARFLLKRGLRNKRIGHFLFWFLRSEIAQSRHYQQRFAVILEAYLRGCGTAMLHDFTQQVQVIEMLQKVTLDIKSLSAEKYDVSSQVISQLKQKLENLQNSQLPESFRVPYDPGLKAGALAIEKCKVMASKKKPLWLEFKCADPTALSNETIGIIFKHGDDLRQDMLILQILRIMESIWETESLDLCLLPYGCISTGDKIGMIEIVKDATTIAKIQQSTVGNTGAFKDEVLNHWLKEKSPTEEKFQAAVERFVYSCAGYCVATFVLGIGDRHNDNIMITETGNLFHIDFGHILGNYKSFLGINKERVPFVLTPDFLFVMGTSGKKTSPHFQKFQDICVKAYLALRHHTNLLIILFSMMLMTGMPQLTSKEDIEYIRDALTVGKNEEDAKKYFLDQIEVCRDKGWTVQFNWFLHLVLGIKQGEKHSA
PI3K-alpha, sequence (P42336 whole entry, species assumed): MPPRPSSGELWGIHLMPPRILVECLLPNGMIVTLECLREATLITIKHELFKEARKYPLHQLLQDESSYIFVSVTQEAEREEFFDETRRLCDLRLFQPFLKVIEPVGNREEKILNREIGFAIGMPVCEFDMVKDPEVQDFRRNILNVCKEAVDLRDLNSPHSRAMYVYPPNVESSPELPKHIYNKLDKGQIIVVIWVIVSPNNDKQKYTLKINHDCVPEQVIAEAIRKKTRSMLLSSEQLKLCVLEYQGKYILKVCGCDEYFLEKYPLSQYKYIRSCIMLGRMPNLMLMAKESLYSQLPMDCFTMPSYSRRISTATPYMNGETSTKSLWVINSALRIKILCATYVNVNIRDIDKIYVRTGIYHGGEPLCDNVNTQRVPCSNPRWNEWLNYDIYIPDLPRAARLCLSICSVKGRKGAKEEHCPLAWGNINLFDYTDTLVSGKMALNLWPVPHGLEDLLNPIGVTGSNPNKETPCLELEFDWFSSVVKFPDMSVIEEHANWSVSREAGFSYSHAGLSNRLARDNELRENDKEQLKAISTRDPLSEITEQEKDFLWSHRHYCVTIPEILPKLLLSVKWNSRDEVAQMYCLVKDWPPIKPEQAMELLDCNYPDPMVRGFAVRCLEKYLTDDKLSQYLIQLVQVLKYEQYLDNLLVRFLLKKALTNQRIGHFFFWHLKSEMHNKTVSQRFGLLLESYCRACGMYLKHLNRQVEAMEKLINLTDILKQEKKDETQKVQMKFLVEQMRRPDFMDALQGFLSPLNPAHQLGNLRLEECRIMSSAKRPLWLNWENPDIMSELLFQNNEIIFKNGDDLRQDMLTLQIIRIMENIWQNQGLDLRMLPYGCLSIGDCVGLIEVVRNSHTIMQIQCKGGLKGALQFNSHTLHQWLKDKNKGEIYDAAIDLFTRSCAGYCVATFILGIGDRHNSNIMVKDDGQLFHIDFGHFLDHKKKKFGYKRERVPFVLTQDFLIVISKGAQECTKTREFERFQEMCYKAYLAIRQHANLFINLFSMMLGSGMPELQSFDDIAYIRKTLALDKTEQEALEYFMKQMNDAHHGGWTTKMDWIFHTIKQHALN
PI3K-alpha, sequence (P27986 whole entry partner, species assumed): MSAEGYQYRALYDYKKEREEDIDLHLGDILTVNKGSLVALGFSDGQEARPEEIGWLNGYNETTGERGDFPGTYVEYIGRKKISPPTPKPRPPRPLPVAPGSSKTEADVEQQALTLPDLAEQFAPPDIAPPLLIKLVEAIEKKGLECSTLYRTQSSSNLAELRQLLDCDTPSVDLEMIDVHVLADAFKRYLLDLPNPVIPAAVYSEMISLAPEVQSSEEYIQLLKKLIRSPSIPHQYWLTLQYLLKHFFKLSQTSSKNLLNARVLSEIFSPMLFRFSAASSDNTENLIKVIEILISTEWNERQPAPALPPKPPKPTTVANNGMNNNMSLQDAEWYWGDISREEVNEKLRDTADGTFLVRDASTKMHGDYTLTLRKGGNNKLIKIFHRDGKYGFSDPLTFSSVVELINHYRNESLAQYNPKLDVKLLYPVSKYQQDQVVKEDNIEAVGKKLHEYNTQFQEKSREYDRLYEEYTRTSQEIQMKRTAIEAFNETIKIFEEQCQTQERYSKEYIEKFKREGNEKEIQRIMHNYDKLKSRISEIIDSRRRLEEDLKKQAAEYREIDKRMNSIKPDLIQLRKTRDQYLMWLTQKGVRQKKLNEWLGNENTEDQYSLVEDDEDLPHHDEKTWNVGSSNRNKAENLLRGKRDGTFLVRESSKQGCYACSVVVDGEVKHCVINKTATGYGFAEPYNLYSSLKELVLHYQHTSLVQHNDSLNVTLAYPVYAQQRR

| IC50 (PI3K-alpha) | IC50 (PI3K-gamma) | IC50 (human TOR) | Structure (SMILES) |
| --- | --- | --- | --- |
| > 10 µM | > 10 µM | > 20 µM | COc1ccc(Br)c2c1C(=O)/C(=C/c1cn(C)c3cccc(-c4ccccc4)c13)O2 [Example 423, (2Z)-7-Bromo-4-methoxy-2-[(1-methyl-4-phenyl-1H-indol-3-yl)methylene]benzofuran-3(2H)-one] |
| 0.166 µM | > 11 µM | > 20 µM | COc1ccc2c(c1)c(/C=C1\Oc3c(ccc(O)c3F)C1=O)c(C)n2CCCN(C)C [Example 449, (2Z)-2-({1-[3-(Dimethylamino)propyl]-5-methoxy-2-methyl-1H-indol-3-yl}methylene)-7-fluoro-6-hydroxy-1-benzofuran-3(2H)-one] |
| 0.0035 µM | 0.018 µM | 0.135 µM | CCn1c(C)c(/C=C2\Oc3ccc(NC(=O)Nc4ccc(N(C)CCN(C)C)cc4)cc3C2=O)c2cc(OC)ccc21 [Compound 652, 1-(4-{[2-(dimethylamino)ethyl](methyl)amino}phenyl)-3-{(2Z)-2-[(1-ethyl-5-methoxy-2-methyl-1H-indol-3-yl)methylene]-3-oxo-2,3-dihydro-1-benzofuran-5-yl}urea] |
| 1.65 µM | 1.08 µM | 3.5 µM | O=C1/C(=C/c2c[nH]c3cccc(-c4ccc(F)cc4)c23)Oc2cc(O)cc(O)c21 [Example 363, (2Z)-2-{[4-(4-fluorophenyl)-1H-indol-3-yl]methylene}-4,6-dihydroxy-1-benzofuran-3(2H)-one] |
| 0.00165 µM | 0.011 µM | 0.092 µM | CCn1c(C)c(/C=C2\Oc3ccc(NC(=O)Nc4ccc(OCCCNC)cc4)cc3C2=O)c2cc(OC)ccc21 [Compound 683, 1-{(2Z)-2-[(1-ethyl-5-methoxy-2-methyl-1H-indol-3-yl)methylidene]-3-oxo-2,3-dihydro-1-benzofuran-5-yl}-3-{4-[3-(methylamino)propoxy]phenyl}urea] |
| 0.007 µM | 0.105 µM | 0.008 µM | CNC(=O)Nc1ccc2c(c1)C(=O)/C(=C/c1c(Br)[nH]c3ccc(OC)cc13)O2 [Compound 692, 1-{(2Z)-2-[(2-bromo-5-methoxy-1H-indol-3-yl)methylidene]-3-oxo-2,3-dihydro-1-benzofuran-5-yl}-3-methylurea] |
| 4.74 µM | 2.1 µM | > 20 µM | COc1ccc2c(c1)c(/C=C1\Oc3cc(NC(=O)OC(C)(C)C)ccc3C1=O)cn2CCCN(C)C [Example 417, tert-butyl (2Z)-[2-({1-[3-(dimethylamino)propyl]-5-methoxy-1H-indol-3-yl}methylene)-3-oxo-2,3-dihydro-1-benzofuran-6-yl]carbamate] |
| 0.837 µM | 3.29 µM | 0.23 µM | Cn1c(-c2ccsc2)c(C=C2Oc3cc(O)cc(O)c3C2=O)c2ccccc21 [Example 194, 4,6-dihydroxy-2-{[1-methyl-2-(3-thienyl)-1H-indol-3-yl]methylene}-1-benzofuran-3(2H)-one] |
| > 10 µM | 2.45 µM | > 20 µM | COc1ccc2c(c1)O/C(=C\c1c[nH]c3ccc(OC)cc13)C2=O [Example 384, (2Z)-6-Methoxy-2-[(5-methoxy-1H-indol-3-yl)methylene]-1-benzofuran-3(2H)-one] |
| 0.00095 µM | 0.00355 µM | 0.007 µM | CNCCNC(=O)Nc1ccc2c(c1)C(=O)/C(=C/c1c(-c3c(C)nn(C)c3C)[nH]c3c(F)cc(OC)cc13)O2 [Compound 728, 1-[(2Z)-2-{[7-fluoro-5-methoxy-2-(1,3,5-trimethyl-1H-pyrazol-4-yl)-1H-indol-3-yl]methylidene}-3-oxo-2,3-dihydro-1-benzofuran-5-yl]-3-[2-(methylamino)ethyl]urea] |
| 0.0125 µM | 0.0615 µM | 0.06 µM | CNC(=O)Nc1ccc2c(c1)C(=O)/C(=C/c1c(-c3c(C)nn(C)c3C)n(CCN(C)C)c3ccc(OC)cc13)O2 [Compound 673, 1-[(2Z)-2-({1-[2-(dimethylamino)ethyl]-5-methoxy-2-(1,3,5-trimethyl-1H-pyrazol-4-yl)-1H-indol-3-yl}methylidene)-3-oxo-2,3-dihydro-1-benzofuran-5-yl]-3-methylurea] |
| 0.0005 µM | 0.00255 µM | 0.001 µM | COc1cc(F)c2[nH]c(-c3c(C)nn(C)c3C)c(/C=C3\Oc4ccc(NC(=O)NCCN)cc4C3=O)c2c1 [Compound 715, 1-(2-aminoethyl)-3-[(2Z)-2-{[7-fluoro-5-methoxy-2-(1,3,5-trimethyl-1H-pyrazol-4-yl)-1H-indol-3-yl]methylidene}-3-oxo-2,3-dihydro-1-benzofuran-5-yl]urea] |
| 0.00095 µM | 0.052 µM | 0.035 µM | CNC(=O)Nc1ccc2c(c1)C(=O)/C(=C/c1c(-c3c(C)nn(C)c3C)n(CCN3CCNCC3)c3ccc(OC)cc13)O2 [Compound 656, 1-[(2Z)-2-{[5-methoxy-1-(2-piperazin-1-ylethyl)-2-(1,3,5-trimethyl-1H-pyrazol-4-yl)-1H-indol-3-yl]methylene}-3-oxo-2,3-dihydro-1-benzofuran-5-yl]-3-methylurea] |
| 0.251 µM | 3.85 µM | 5.2 µM | O=C1C(=Cc2c[nH]c3ccc(O)cc23)Oc2cc(O)cc(O)c21 [Example 164, 4,6-dihydroxy-2-[(5-hydroxy-1H-indol-3-yl)methylene]-1-benzofuran-3(2H)-one] |
| 0.039 µM | 0.612 µM | 1.4 µM | COc1ccc2c(c1)c(/C=C1\Oc3cc(O)ccc3C1=O)c(C)n2CCN1CCC(C)CC1 [Example 455, (2Z)-6-Hydroxy-2-({5-methoxy-2-methyl-1-[2-(4-methylpiperidin-1-yl)ethyl]-1H-indol-3-yl}methylene)-1-benzofuran-3(2H)-one] |
| 1.64 µM | 7.71 µM | 0.123 µM | Cn1cc(/C=C2\Oc3cc(O)cc(O)c3C2=O)c2c(-c3cnn(CCN4CCOCC4)c3)cccc21 [Example 403, (2Z)-4,6-Dihydroxy-2-({1-methyl-4-[1-(2-morpholin-4-ylethyl)-1H-pyrazol-4-yl]-1H-indol-3-yl}methylene)-1-benzofuran-3(2H)-one] |
| 0.0006 µM | 0.0075 µM | 0.175 µM | CCn1cc(/C=C2\Oc3ccc(NC(=O)Nc4ccc(C(=O)N(C)CCN(C)C)cc4)cc3C2=O)c2cc(OC)ccc21 [Compound 655, N-[2-(dimethylamino)ethyl]-4-[({(2Z)-2-[(1-ethyl-5-methoxy-1H-indol-3-yl)methylene]-3-oxo-2,3-dihydro-1-benzofuran-5-yl}carbamoyl)amino]-N-methylbenzamide] |
| 0.00115 µM | 0.157 µM | 0.2 µM | CNC(=O)Nc1ccc2c(c1)C(=O)/C(=C/c1c(-c3ccc(CN(C)C)cc3)n(CCN3CCN(C)CC3)c3ccc(OC)cc13)O2 [Compound 630, 1-{(2Z)-2-[(2-{4-[(dimethylamino)methyl]phenyl}-5-methoxy-1-[2-(4-methylpiperazin-1-yl)ethyl]-1H-indol-3-yl)methylidene]-3-oxo-2,3-dihydro-1-benzofuran-5-yl}-3-methylurea] |
| 0.0008 µM | 0.0045 µM | 0.034 µM | CCn1c(C)c(/C=C2\Oc3ccc(NC(=O)Nc4ccc(C(=O)NCCCN(C)C)cc4)cc3C2=O)c2cc(OC)ccc21 [Compound 666, N-[3-(dimethylamino)propyl]-4-[({(2Z)-2-[(1-ethyl-5-methoxy-2-methyl-1H-indol-3-yl)methylidene]-3-oxo-2,3-dihydro-1-benzofuran-5-yl}carbamoyl)amino]benzamide] |
